Source: patent publication US7947741B2, “Use and administration of bacterial efflux pump inhibitors” (Mpex Pharmaceuticals, Inc., priority 2004, dated 2011)

Key:
PAM1723 cells = assay: EtBr uptake (proton gradient disruption); assay type: cell-based, Pseudomonas aeruginosa; details: CCCP 50 μg/ml for 15 minutes, pentamidine 80 μg/ml
Description: A proton gradient is necessary for efflux pump activity. Accordingly, compounds that are capable of proton gradient disruption will appear as efflux inhibitors in accumulation assays. This possibility was tested for pentamidine. EtBr is a substrate of the MexAB-OprM efflux pump from P. aeruginosa as evident from the differential rates of its uptake in PAM 1723 and PAM 1626, MexAB-OprM overexpressing or lacking strains, respectively. CCCP is a well-known protonophore, which rapidly dissipates the proton gradient.

[1] = system: P. aeruginosa PAM2281 (MexAB-OprM, MexEF-OprN); assay: microbe, parasite or virus in culture; assay type: cell-based, Pseudomonas aeruginosa; details: PAM2281
Description: (§1) A set of strains that simultaneously over-expressed pairs or triplicates of pumps, e.g. PAM2302 and PAM2303 was tested. Simultaneous over-expression of efflux pumps has been recently detected in clinical strains.

[2] = system: P. aeruginosa PAM2466 (MexAB-OprM, MexXY-OprM); assay: microbe, parasite or virus in culture; assay type: cell-based, Pseudomonas aeruginosa; details: PAM2466
Description: as §1

[3] = system: P. aeruginosa PAM2302 (MexAB-OprM, MexCD-OprJ, MexEF-OprN); assay: microbe, parasite or virus in culture; assay type: cell-based, Pseudomonas aeruginosa; details: PAM2302
Description: as §1

[4] = system: P. aeruginosa PAM1438 (MexAB-OprM, MexCD-OprJ); assay: microbe, parasite or virus in culture; assay type: cell-based, Pseudomonas aeruginosa; details: PAM1438
Description: as §1

[5] = system: P. aeruginosa PAM2282 (MexAB-OprM, MexEF-OprN); assay: microbe, parasite or virus in culture; assay type: cell-based, Pseudomonas aeruginosa; details: PAM2282
Description: as §1

[6] = system: P. aeruginosa PAM1738 (nfxB, overexpressing MexCD-OprJ); assay: microbe, parasite or virus in culture; assay type: cell-based, Pseudomonas aeruginosa
Description: Stock solutions were further diluted, according to the needs of a particular assay, in Mueller Hinton Broth (MHB). Stock solution was stored at −80° C.
The checkerboard assay was performed in microtiter plates. […] The result of these manipulations is that each well of the microtiter plate contains a unique combination of concentrations of the two agents. The assay was performed in MHB with a final bacterial inoculum of 5×10^5 CFU/ml (from an early-log phase culture). Microtiter plates were incubated during 20 h at 35° C. and were read using a microtiterplate reader (Molecular Devices) at 650 nm as well as visual observation using a microtiter plate reading mirror.
The test organisms used was PAM1020, which is a wild type strain of P. aeruginosa expressing the basal level of MexAB-OprM, as well as PAM1723, PAM1738, and PAM1753, overexpressing the MexAB-OprM, MexCD-OprJ, and MexEF-OprN pump, respectively.

[7] = system: PAM1626 cells (lacking the efflux pump); assay: Leu-Nap accumulation assay; details: Leu-Nap 100 μg/ml, pentamidine 0 to 80 μg/ml
Description: Leu-Nap, which is not fluorescent in solution, is cleaved enzymatically inside the cells to produce highly fluorescent β-naphthylamine. The more Leu-Nap enters cells, the more fluorescence is produced. The rate of production of β-naphthylamine (recorded as an increase in fluorescence) is limited by the rate of entry of Leu-Nap into the cell. To assess the uptake of Leu-Nap, cultures of P. aeruginosa were grown to OD600 ˜1, washed and re-suspended in buffer at pH 7.0 containing K2HPO4 50 mM, MgSO4 1 mM, and Glucose 0.4% (Buffer A). Assays were performed in 96-well flat bottom black plates (Applied Scientific or Costar) in a final volume of 200 μl and were initiated by addition of Leu-Nap to suspensions of intact cells to a final concentration of 100-20 μg/ml. Fluorescence was measured on a fMAX spectrofluorometer (Molecular Devices) using excitation of 320 nm and emission of 460 nm.

[8] = cited from earlier work
[9] = system: P. aeruginosa PAM1020 (pump status none; target mutation none); assay: microbe, parasite or virus in culture; assay type: cell-based, Pseudomonas aeruginosa; details: PAM1020
Text: (§2) In addition to increased efflux, resistance to fluoroquinolones may be due to target mutations (gyrase and topoisimerase IV) or due to combination of these two resistance mechanisms in a single bacterial cell.

[10] = system: P. aeruginosa PAM1491 (MexEF-OprN; gyrA (Asp87Tyr)); assay: microbe, parasite or virus in culture; assay type: cell-based, Pseudomonas aeruginosa; details: PAM1491
Text: as §2

[11] = system: P. aeruginosa PAM1482 (MexCD-OprJ; gyrA (Asp87Tyr)); assay: microbe, parasite or virus in culture; assay type: cell-based, Pseudomonas aeruginosa; details: PAM1482
Text: as §2

[12] = system: P. aeruginosa PAM1032 (MexAB-OprM); assay: microbe, parasite or virus in culture; assay type: cell-based, Pseudomonas aeruginosa; details: PAM1032
Text: as §2

[13] = system: P. aeruginosa PAM1548 (pump status none; gyrA (Thr83Ile)); assay: microbe, parasite or virus in culture; assay type: cell-based, Pseudomonas aeruginosa; details: PAM1548
Text: as §2

[14] = system: P. aeruginosa PAM1570 (MexEF-OprN; gyrA (Thr83Ile)); assay: microbe, parasite or virus in culture; assay type: cell-based, Pseudomonas aeruginosa; details: PAM1570
Text: as §2

[15] = system: P. aeruginosa PAM1034 (MexEF-OprN); assay: microbe, parasite or virus in culture; assay type: cell-based, Pseudomonas aeruginosa; details: PAM1034
Text: as §2

[16] = system: P. aeruginosa PAM1569 (MexCD-OprJ; gyrA (Thr83Ile)); assay: microbe, parasite or virus in culture; assay type: cell-based, Pseudomonas aeruginosa; details: PAM1569
Text: as §2

[17] = system: P. aeruginosa PAM1033 (MexCD-OprJ); assay: microbe, parasite or virus in culture; assay type: cell-based, Pseudomonas aeruginosa; details: PAM1033
Text: as §2

[18] = target: MexAB-OprM-mediated efflux of Leu-Nap, PAM1723 cells (Pseudomonas aeruginosa, UniProt P52002); assay: Leu-Nap accumulation assay; assay type: cell-based
[19] = 24 hours after 300 mg in a jet nebulizer

MexAB-OprM-mediated efflux of Leu-Nap, PAM1723 cells, sequence (Q51487 18-485): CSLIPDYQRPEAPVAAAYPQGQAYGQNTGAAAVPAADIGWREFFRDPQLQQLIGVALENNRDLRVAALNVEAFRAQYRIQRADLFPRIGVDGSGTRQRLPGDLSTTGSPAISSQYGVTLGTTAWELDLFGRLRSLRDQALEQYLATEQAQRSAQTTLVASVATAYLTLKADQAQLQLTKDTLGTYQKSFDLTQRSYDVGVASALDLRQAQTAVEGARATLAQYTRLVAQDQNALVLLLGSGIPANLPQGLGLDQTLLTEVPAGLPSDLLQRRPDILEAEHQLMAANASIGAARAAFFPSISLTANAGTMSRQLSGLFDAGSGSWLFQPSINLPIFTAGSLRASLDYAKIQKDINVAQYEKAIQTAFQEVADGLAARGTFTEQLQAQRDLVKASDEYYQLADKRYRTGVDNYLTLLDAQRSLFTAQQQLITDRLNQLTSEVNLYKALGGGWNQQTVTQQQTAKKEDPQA
MexAB-OprM-mediated efflux of Leu-Nap, PAM1723 cells, sequence (P52002 whole entry): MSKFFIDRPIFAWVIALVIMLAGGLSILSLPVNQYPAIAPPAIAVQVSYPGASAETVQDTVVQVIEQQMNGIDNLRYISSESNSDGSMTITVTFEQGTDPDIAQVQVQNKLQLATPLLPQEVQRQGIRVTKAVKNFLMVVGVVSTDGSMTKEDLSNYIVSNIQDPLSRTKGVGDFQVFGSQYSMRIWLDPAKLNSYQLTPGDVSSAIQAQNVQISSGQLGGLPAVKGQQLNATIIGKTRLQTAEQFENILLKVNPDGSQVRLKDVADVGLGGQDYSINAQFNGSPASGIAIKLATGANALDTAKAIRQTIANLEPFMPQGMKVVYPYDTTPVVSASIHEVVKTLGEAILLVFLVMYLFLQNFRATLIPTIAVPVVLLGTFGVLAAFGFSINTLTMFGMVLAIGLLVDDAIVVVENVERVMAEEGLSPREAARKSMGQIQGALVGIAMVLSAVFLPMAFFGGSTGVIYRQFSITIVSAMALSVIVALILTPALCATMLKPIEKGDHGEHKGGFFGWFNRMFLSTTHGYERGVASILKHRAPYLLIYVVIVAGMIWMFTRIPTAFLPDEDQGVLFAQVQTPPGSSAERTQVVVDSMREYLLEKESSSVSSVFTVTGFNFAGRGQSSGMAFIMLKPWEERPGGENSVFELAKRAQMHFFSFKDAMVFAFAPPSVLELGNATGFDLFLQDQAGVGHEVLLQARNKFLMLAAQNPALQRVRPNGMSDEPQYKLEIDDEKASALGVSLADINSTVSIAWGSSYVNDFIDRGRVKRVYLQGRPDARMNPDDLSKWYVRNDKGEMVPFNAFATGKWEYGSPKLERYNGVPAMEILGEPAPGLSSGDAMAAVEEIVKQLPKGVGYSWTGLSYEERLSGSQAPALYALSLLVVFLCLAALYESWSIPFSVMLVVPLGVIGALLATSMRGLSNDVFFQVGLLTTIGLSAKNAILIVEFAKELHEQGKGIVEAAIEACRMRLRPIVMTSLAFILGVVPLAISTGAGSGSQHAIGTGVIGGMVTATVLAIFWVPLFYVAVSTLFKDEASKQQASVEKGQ
MexAB-OprM-mediated efflux of Leu-Nap, PAM1723 cells, sequence (P52477 24-383, further chain): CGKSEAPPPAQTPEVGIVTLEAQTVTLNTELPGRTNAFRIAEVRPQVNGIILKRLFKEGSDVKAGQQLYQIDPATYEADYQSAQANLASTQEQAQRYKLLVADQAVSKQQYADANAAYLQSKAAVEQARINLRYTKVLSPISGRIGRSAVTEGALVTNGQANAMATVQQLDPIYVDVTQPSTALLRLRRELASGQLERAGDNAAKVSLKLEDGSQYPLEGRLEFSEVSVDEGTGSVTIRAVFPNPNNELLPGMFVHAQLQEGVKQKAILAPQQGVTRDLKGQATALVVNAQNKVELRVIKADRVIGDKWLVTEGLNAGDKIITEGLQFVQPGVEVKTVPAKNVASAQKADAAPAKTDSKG

## N=C(N)c1ccc(OCCCCCOc2ccc(C(=N)N)cc2)cc1 [Pentamidine, pentamidine]
PAM1723 cells
  EtBr uptake: did not result in increased EtBr uptake
[1]
  Ciprofloxacin MIC w/pentamidine at 20 μg/ml: 0.25 µg/mL
  Levofloxacin MIC w/pentamidine at 20 μg/ml: 0.25 µg/mL
[2]
  Ciprofloxacin MIC w/pentamidine at 20 μg/ml: 0.06 µg/mL
  Levofloxacin MIC w/pentamidine at 20 μg/ml: 0.125 µg/mL
[3]
  Ciprofloxacin MIC w/pentamidine at 20 μg/ml: 0.25 µg/mL
  Levofloxacin MIC w/pentamidine at 20 μg/ml: 0.25 µg/mL
[4]
  Ciprofloxacin MIC w/pentamidine at 20 μg/ml: 0.25 µg/mL
  Levofloxacin MIC w/pentamidine at 20 μg/ml: 0.25 µg/mL
[5]
  Ciprofloxacin MIC w/pentamidine at 20 μg/ml: 0.125 µg/mL
  Levofloxacin MIC w/pentamidine at 20 μg/ml: 0.25 µg/mL
[6]; PAM1738, inhibitor 1.25 μg/ml
  Levofloxacin MIC in the presence of inhibitor: 0.5 µg/mL
[6]; PAM1738, inhibitor 2.5 μg/ml
  Levofloxacin MIC in the presence of inhibitor: 0.25 µg/mL
[6]; PAM1738, inhibitor 5 μg/ml
  Levofloxacin MIC in the presence of inhibitor: 0.25 µg/mL
[6]; PAM1738, inhibitor 10 μg/ml
  Levofloxacin MIC in the presence of inhibitor: 0.25 µg/mL
[6]; PAM1738, inhibitor 20 μg/ml
  Levofloxacin MIC in the presence of inhibitor: 0.125 µg/mL
[6]; PAM1738, inhibitor 40 μg/ml
  Levofloxacin MIC in the presence of inhibitor: 0.03 µg/mL
[6]; PAM1738, inhibitor 80 μg/ml
  Levofloxacin MIC in the presence of inhibitor: 0.015 µg/mL
[6]; PAM1738, pentamidine at 20 μg/ml
  decrease of levofloxacin MIC: 4 fold
[6]; Pseudomonas aeruginosa, read-out: MIC* (MIC for the efflux pump inhibitor)
  MIC: > 80 µg/mL
[7]
  effect on Leu-Nap uptake: No such increase
[8]; [19]
  concentration in bronchial alveolar lavage fluid sediment: 705 ± 242 ng/mL
  concentration in bronchial alveolar lavage fluid supernatant: 23.2 ± 7.75 ng/mL
[8]; after 3 weeks of daily administration of 3 mg/kg
  trough plasma concentration: 61.1 ± 56.0 ng/mL
[9]
  Ciprofloxacin MIC w/pentamidine at 20 μg/ml: 0.015 µg/mL
  Levofloxacin MIC w/pentamidine at 20 μg/ml: 0.03 µg/mL
[10]
  Ciprofloxacin MIC w/pentamidine at 20 μg/ml: 1 µg/mL
  Levofloxacin MIC w/pentamidine at 20 μg/ml: 2 µg/mL
[11]
  Ciprofloxacin MIC w/pentamidine at 20 μg/ml: 2 µg/mL
  Levofloxacin MIC w/pentamidine at 20 μg/ml: 1 µg/mL
[12]
  Ciprofloxacin MIC w/pentamidine at 20 μg/ml: 0.06 µg/mL
  Levofloxacin MIC w/pentamidine at 20 μg/ml: 0.125 µg/mL
[13]
  Ciprofloxacin MIC w/pentamidine at 20 μg/ml: 0.5 µg/mL
  Levofloxacin MIC w/pentamidine at 20 μg/ml: 0.25 µg/mL
[14]
  Ciprofloxacin MIC w/pentamidine at 20 μg/ml: 2 µg/mL
  Levofloxacin MIC w/pentamidine at 20 μg/ml: 2 µg/mL
[15]
  Ciprofloxacin MIC w/pentamidine at 20 μg/ml: 0.06 µg/mL
  Levofloxacin MIC w/pentamidine at 20 μg/ml: 0.125 µg/mL
[16]
  Ciprofloxacin MIC w/pentamidine at 20 μg/ml: 4 µg/mL
  Levofloxacin MIC w/pentamidine at 20 μg/ml: 4 µg/mL
[17]
  Ciprofloxacin MIC w/pentamidine at 20 μg/ml: 0.25 µg/mL
  Levofloxacin MIC w/pentamidine at 20 μg/ml: 0.25 µg/mL
[18]; Leu-Nap 100 μg/ml
  inhibitor concentration at which rate of Leu-Nap uptake in PAM1723 and PAM1626 is the same (complete inhibition of efflux): 40 µg/mL
[18]; dependence on Leu-Nap substrate concentration
  mode of inhibition: uncompetitive inhibition
[18]; external Leu-Nap 60 μg/ml, fluorescence change in 30 min
  pentamidine required for complete inhibition of the pump: 80 µg/mL
[18]; external Leu-Nap 120 μg/ml, fluorescence change in 30 min
  pentamidine required to completely inhibit MexAB-OprM-mediated efflux: 20 µg/mL
